Reference: publication PMC11251039, “Harnessing cholesterol uptake of malaria parasites for therapeutic applications” (EMBO Molecular Medicine, 2024)
“And” between values parts separate entries of the source, which are not always exact repeats. Identical values can stand only once. Like-named read-outs stand apart in the source and are kept apart here.

How the values were obtained:
[1] = system: asexual P. falciparum 3D7 wild-type parasites; assay: P. falciparum asexual growth inhibition assay (SYBR Safe DNA replication); type: cell-based, Plasmodium falciparum; settings: for P. falciparum asexual growth, percentage of control: replicate values, source data Fig. 2B, listed as BC5B; for IC90 / IC50: Plasmodium falciparum; for IC50: read-out: IC50, P. falciparum asexual growth inhibition
Method in brief: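 Sorbitol-synchronised ring-stage cultures at 1% parasitaemia and 1% haematocrit were exposed to 2-fold compound dilutions at 37 °C under microaerophilic conditions for 24, 48 or 72 h. Growth was read by SYBR Safe fluorescence of freeze-thaw lysates, with 200 nM chloroquine or artesunate defining background.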

[2] = system: human hepatoma cells (Huh7); assay: Human hepatoma viability assay (CellTiter-Blue); type: cell-based; settings: for Huh7 viability, dose-response data points (Figure 3F): replicate data points, listed as BC5B
Protocol: Huh7 hepatoma viability assays were conducted in the same manner as the P. berghei assays, with metabolic capacity (indicating viability) measured with a fluorescence microplate reader after incubation with CellTiter-Blue® (Promega) for 3 h.
Appendix Fraser/Curtis et al. […]
Human Hepatoma Viability Assays:
The Huh7 hepatoma cell line (ATCC) was maintained under routine culture conditions in Dulbecco's Modified Eagle Medium (DMEM) containing 3.7 g/L NaHCO3 supplemented with 10% foetal bovine serum (FBS), 100 units/mL penicillin, and 100 μg/mL streptomycin at 37 °C in a humidified 5% CO2 incubator.
Viability assays were performed in parallel to the P. berghei growth inhibition. 10,000 Huh7 cells were seeded in 96-well and dark-sided microplates (Greiner Bio One) and cultured at 37°C, 5% CO2 and 80% humidity. The next day, the media was replaced with compounds or solvent controls (DMSO) serially diluted in culture media. Media was partially replaced with new drug dilutions over the following two days. After 48 hours, CellTiter-Blue® (Promega) was added according to the manufacturer’s instructions and incubated for 3 hours. Fluorescence intensity was measured with 530/25 ex and 590/20 em in a Synergy HTX plate reader (Agilent).

[3] = system: human embryonic kidney cells (HEK293); assay: Human embryonic kidney cell viability assay (MTT); type: cell-based; settings: Homo sapiens; 96 h, HEK293; read-out: IC50, human embryonic kidney cell inhibition (viability)
Protocol: HEK293 cell viability assays commenced with 5000 cells per well. 10 µg/mL cycloheximide was used as a no-growth control. Metabolic capacity (indicating viability) was measured in an absorbance microplate reader after incubation with 0.45 mg/mL methylthiazolyldiphenyl-tetrazolium bromide (MTT; Sigma M2128) for 2 h followed by crystal solubilisation in SDS. […]
Human Embryonic Kidney Cell Viability Assays:
Human Embryonic Kidney Cell (HEK293) culture:
The HEK293 cell line was maintained under routine culture conditions in DMEM containing 3.7 g/L NaHCO3 supplemented with 10% FBS, 200 μM glutamine, 100 units/mL penicillin, and 100 μg/mL streptomycin at 37 °C in a humidified 5% CO2 incubator.
Cells were detached from a flask using 0.25% Trypsin with 0.2 g/L EDTA (Sigma T4049) and washed with culture media containing no phenol red. Cells were incubated with a serial dilution of each compound, or media/DMSO alone. The protein synthesis inhibitor cycloheximide (Sigma 01810) at 10 µg/mL was used as a positive control to determine background absorbance. 5,000 cells were seeded in each well. After 96 hours, 0.45 mg/mL methylthiazolyldiphenyl-tetrazolium bromide (MTT; Sigma M2128) was added and incubated for a further two hours, before mixing 1.1:1 with 10% w/v sodium dodecyl sulfate (SDS) to solubilise crystals and freezing the plate at -18 °C to stop the assay. […]

## COc1cc(NC(C)CCCNC(=O)CCC(=O)O[C@H]2CC[C@H]3[C@@H]4CC=C5C[C@@H](O)CC[C@]5(C)[C@H]4CC[C@]23C)c2ncccc2c1 (stereo partly shown) [C-17-PQ]
[1]
  Fold lower IC50 than primaquine alone: ~ 4 fold
[1]; 0.154296880 uM, 24 h
  P. falciparum asexual growth, percentage of control: 115.9% and 112.2% and 101.3% and 107.1% and 95.84% and 88.53% and 98.99% and 116.6% and 76.11%
[1]; 0.308593750 uM, 24 h
  P. falciparum asexual growth, percentage of control: 125.5% and 115.5% and 91.68% and 117.9% and 88.81% and 84.79% and 114.9% and 109.1% and 95.02%
[1]; 0.617187500 uM, 24 h
  P. falciparum asexual growth, percentage of control: 131.7% and 113.6% and 103% and 85.01% and 97.93% and 83.36% and 109% and 162.3% and 97.26%
[1]; 1.234375000 uM, 24 h
  P. falciparum asexual growth, percentage of control: 120.1% and 114.6% and 99.7% and 107.3% and 77.37% and 93.38% and 101.7% and 96.22% and 102.4%
[1]; 2.468750000 uM, 24 h
  P. falciparum asexual growth, percentage of control: 89.52% and 83.68% and 69.39% and 87.34% and 56.13% and 47.54% and 76.36% and 68.29% and 79.29%
[1]; 4.937500000 uM, 24 h
  P. falciparum asexual growth, percentage of control: 14.72% and 24.05% and 6.418% and 5.536% and -2.79% and -3.361% and 18.05% and 30.2% and 18.39%
[1]; 9.875000000 uM, 24 h
  P. falciparum asexual growth, percentage of control: 13.15% and 2.413% and -18.71% and -3.317% and -20.54% and -27.66% and -1.156% and -7.164% and -20.57%
[1]; 19.750000000 uM, 24 h
  P. falciparum asexual growth, percentage of control: -9.926% and -19.32% and -11.56% and 3.097% and -3.493% and -18.72% and 17.43% and -16.64% and -32.93%
[1]; 24 h
  Fold difference in IC90 to primaquine: ~ 8 fold
  Hill slope of inhibitory curve: −4.56
[1]; 72 h
  Hill slope of inhibitory curve: −4.20
[1]; 3D7, 24 h
  IC90: 5 µM
[1]; 3D7, 24 h, 24 h, starting at ring stages
  IC50: 3.1 µM
[1]; 3D7, 48 h, 48 h
  IC50: 3 µM
[1]; 3D7, 72 h
  IC90: 4 µM
[1]; 3D7, 72 h, 72 h
  IC50: 2.4 µM
[2]; 0.015241580 uM, 0.0152416 µM
  Huh7 viability, dose-response data points (Figure 3F): 98.89 and 98.22 and 98.39 and 94.42 and 103 and 100.2 and 102.1 and 98.78
[2]; 0.045724740 uM, 0.0457247 µM
  Huh7 viability, dose-response data points (Figure 3F): 96.51 and 98.69 and 94.1 and 96.38 and 90.79 and 82.31 and 84.01 and 89.64
[2]; 0.137174210 uM, 0.137174 µM
  Huh7 viability, dose-response data points (Figure 3F): 106.8 and 96.95 and 95.92 and 94.98 and 96.42 and 101.8 and 95.52 and 109.1
[2]; 0.411522630 uM, 0.411523 µM
  Huh7 viability, dose-response data points (Figure 3F): 95.23 and 97.59 and 96.23 and 88.28 and 94.64 and 96.4 and 105 and 96.39
[2]; 1.234567900 uM, 1.23457 µM
  Huh7 viability, dose-response data points (Figure 3F): 95.71 and 98.77 and 99.42 and 84.3 and 74.81 and 88.03 and 77.15 and 83 and 86.37
[2]; 3.703703700 uM, 3.7037 µM
  Huh7 viability, dose-response data points (Figure 3F): 88.28 and 89.97 and 90.65 and 52.83 and 57.73 and 57.82 and 45.17 and 51.57 and 42.91
[2]; 11.111111100 uM, 11.1111 µM
  Huh7 viability, dose-response data points (Figure 3F): 75.95 and 74.95 and 78.75 and 46.5 and 49.1 and 49.17 and 39.05 and 40.11 and 38.75
[2]; 33.333333300 uM, 33.3333 µM
  Huh7 viability, dose-response data points (Figure 3F): 79.29 and 78.52 and 76.32 and 47.53 and 46.72 and 48.69 and 34.13 and 38.39 and 36.44
[2]; 100.000000000 uM
  Huh7 viability, dose-response data points (Figure 3F): 80.41 and 81.45 and 81.11 and 48.76 and 54.16 and 52.59 and 35.21 and 39.74 and 37.9
[2]; Homo sapiens, Huh-7, 48 h, read-out: IC50, human hepatoma inhibition (viability)
  IC50: > 50 µM
[3]
  IC50: > 50 µM
